From patent US5780481A, “Method for inhibiting activation of the human A3 adenosine receptor to treat asthma” (Merck & Co., Inc., priority 1996, dated 1998)
Values belong to the compound of their own block, whether it stands above or below them.

Assays:
[1] = test system: hamster cheek pouch arterioles; experiment: Vascular constriction in hamster cheek pouch arterioles; design: species or system Golden hamster
Procedure: Adenosine, inosine, cromolyn, compound 48/80, methylene blue, acetylcholine, and components for saline solutions used to bathe arterioles are obtained from Sigma. 8(p-sulphophenyl)theo-phylline was obtained from Research Biochemicals, Inc. (Natick, Mass.).
Arterioles (luminal diameter approximately 60 μm) are dissected from male Golden hamster cheek pouches, transferred to a 37° C. tissue chamber, and cannulated at both ends (see Duling et al., Am. J. Physiol., (241) (Heart Circ. Physiol., (10) pp. H108-H116 (1981); Duling et al., Microcirculatory Technology, edited by C. H. Baker and W. G. Nastuk, Orlando Academic Press, pp. 265-280 (1986)). Changes in luminal diameter in response to abluminal delivery of adenosine (10^-8 M to 10^-4 M) are measured using videotaped microscopic observation and video calipers with continuous output, to generate cumulative concentration-response curves.
Examination of the abluminal surface of the vessel after staining with methylene blue reveal large numbers of mast cells closely associated with the vessel wall.

[2] = test system: ischemic reperfused myocardium; settings: in vivo; cited from earlier work
asthmatics = asthmatics but not nonasthmatics; cited from earlier work
[3] = test system: mast cells isolated from rat peritoneum; settings: cited from earlier work
[4] = target: T1, human A2a adenosine receptor (Homo sapiens, UniProt P29274); experiment: Radioligand binding assay, A2a receptor; settings: [3H]-CGS21680; membranes of transfected COS7 cells; read-out: IC50, inhibition of specific radioligand binding to A2a receptor
T1 construct: expressed in transfected cells; host or cells: COS7 cells (transient transfection), membranes
Text: (§1) The human A1, A2a, A2b and A3 receptor subtype cDNAs were subcloned into the expression vectors pSVL (Pharmacia, Columbus, Ohio), CMV5 (Mumby, et al., PNAS, (87) pp. 728-732 (1990)) pCDNA1 or pREP (Invitrogen). Transient expression in COS7 cells (monkey kidney cell line, ATCC CRL 1651, ATCC, Rockville, Md.) (Doyl et al. WO 95/11681) was accomplished by transfection of the cloned adenosine receptor cDNAs under the control of the SV40 promoter into mammalian cells, such as COS7. Membranes prepared from the transfected cells were utilized for the determination of binding affinity, selectivity and specificity of the human adenosine receptors for various ligands. […]
(§2) Membranes prepared from transfected COS7 cells were utilized in a binding assay to measure the affinity of agonists and antagonists on the human adenosine receptors. […] Bound radioactivity was measured by scintillation counting. Binding data were analyzed by the use on nonlinear regression curve fitting program Graph Pad InPlot, Version 3.0 (Graph Pad Software, San Diego). Ki values were calculated using the Cheng-Prusoff derivation (Cheng, Y. C. and Prusoff, H. R. (1973) Biochem. Pharmacol. 22, 3099-3108). […] Nonselective binding was determined with 1 μM I-ABA for A1 and A3 receptors and 10 μM NECA for A2a receptors. Activity on A2b receptor subtypes was measured in the cAMP accumulation assay described below. […]

myocardial infarct = experiment: Reduction of myocardial infarct size in anesthetized dogs; assay type: in vivo, dog
Procedure: The effect of antagonist compound IV, with high affinity for canine A3 adenosine receptors, on myocardial infarct size is compared to a vehicle-treated control group in barbital-anesthetized dogs subjected to 90 minutes of left anterior descending coronary artery occlusion followed by 3 hours of reperfilsion. Vehicle (5 μM NaOH in isotonic saline) or antagonist are infused at a rate of 1 ml/min directly into the left anterior descending coronary artery distal to the occlusion site beginning 10 minutes before occlusion and are continued throughout the entire ischemic period. The myocardial region at risk and infarct size are determined by the triphenyltetrazolium histochemical technique and regional myocardial blood flow by radioactive microspheres. Coronary sinus LDH activity and histamine concentrations were measured at various times throughout the experiments and myeloperoxidase activity was determined at the conclusion of the experiments as an index of neutrophil infiltration into the ischemic-reperfused mycocardium. Ten dogs were included in this preliminary study, 4 in the vehicle-treated group and 6 in the antagonist treated group.

[5] = target: T2, human A1 adenosine receptor (Homo sapiens, UniProt P30542); experiment: Radioligand binding assay, A1 receptor; settings: [3H]-cyclohexyladenosine (CHA); membranes of transfected COS7 cells; read-out: IC50, inhibition of specific radioligand binding to A1 receptor
T2 construct: expressed in transfected cells; host or cells: COS7 cells (transient transfection), membranes
T2 sequence (P30542 1-326): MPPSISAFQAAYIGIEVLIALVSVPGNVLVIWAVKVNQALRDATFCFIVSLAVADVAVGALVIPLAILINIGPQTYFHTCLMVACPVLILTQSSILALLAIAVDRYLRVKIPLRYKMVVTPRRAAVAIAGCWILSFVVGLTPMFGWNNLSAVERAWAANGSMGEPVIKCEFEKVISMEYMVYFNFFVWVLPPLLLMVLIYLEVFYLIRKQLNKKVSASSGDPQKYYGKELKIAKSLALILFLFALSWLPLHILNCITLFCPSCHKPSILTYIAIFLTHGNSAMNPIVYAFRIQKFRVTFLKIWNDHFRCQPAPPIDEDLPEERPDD
Text: as §1, §2

[6] = target: T3, human A3 adenosine receptor (Homo sapiens, UniProt P0DMS8); experiment: cAMP accumulation assay, A3 receptors stably expressed on CHO cells (FIG. 1); assay type: cell-based
T3 construct: expressed in transfected cells
T3 sequence (P0DMS8 1-318): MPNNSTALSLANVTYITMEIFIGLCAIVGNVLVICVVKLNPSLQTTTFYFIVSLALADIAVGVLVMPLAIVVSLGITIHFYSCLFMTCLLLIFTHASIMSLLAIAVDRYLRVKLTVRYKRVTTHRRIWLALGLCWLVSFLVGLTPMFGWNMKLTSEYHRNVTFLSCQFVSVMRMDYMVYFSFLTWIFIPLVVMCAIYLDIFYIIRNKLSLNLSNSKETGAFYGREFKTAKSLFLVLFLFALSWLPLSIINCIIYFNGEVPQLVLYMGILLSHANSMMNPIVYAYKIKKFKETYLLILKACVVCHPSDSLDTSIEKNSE
Procedure: The changes in cAMP accumulation were measured in stably transfected CHO cells expressing the human adenosine receptor subtypes. CHO cells were washed twice in phosphate buffered saline (PBS) and detached in 0.2% EDTA in PBS. After pelleting at 800 rpm for 10 min, cells were resuspended in KRH buffer (140 mM NaCl/5 mM KCl/2 mM CaCl2 /1.2 mM MgSO4 /1.2 mM KH2 PO4 /6 mM glucose/25 mM Hepes buffer, pH 7.4), washed once in KRH buffer and resuspended at 10^7 cells/mL. The cell suspension (100 μL) was mixed with 100 μL of KRH buffer containing 200 μM of the phosphodiesterase inhibitor Ro 20-1724 and incubated at 37° C. for 15 minutes. Antagonists were preincubated for 10 minutes before adding 5 μM forskolin and 60 μM adenosine. After 10 minutes, 400 μL of 100 mM acetic acid was added and the sample was boiled for 5 minutes. The supernatant was recovered by centrifugation for 15 minutes and cAMP levels were determined by radioimmunoassay ([…] kit, DuPont/NEN) using the acetylation protocol.

[7] = test system: canine A3 adenosine receptors; experiment: Affinity for canine A3 adenosine receptors; assay type: binding
[8] = target: T4, human A2b adenosine receptor (Homo sapiens, UniProt P29275); experiment: cAMP accumulation via A2b receptors; assay type: cell-based; settings: at 10 μM; stably transfected CHO cells; adenosine (10 μM) induced
T4 construct: cAMP accumulation induced by adenosine
T4 sequence (P29275 1-332): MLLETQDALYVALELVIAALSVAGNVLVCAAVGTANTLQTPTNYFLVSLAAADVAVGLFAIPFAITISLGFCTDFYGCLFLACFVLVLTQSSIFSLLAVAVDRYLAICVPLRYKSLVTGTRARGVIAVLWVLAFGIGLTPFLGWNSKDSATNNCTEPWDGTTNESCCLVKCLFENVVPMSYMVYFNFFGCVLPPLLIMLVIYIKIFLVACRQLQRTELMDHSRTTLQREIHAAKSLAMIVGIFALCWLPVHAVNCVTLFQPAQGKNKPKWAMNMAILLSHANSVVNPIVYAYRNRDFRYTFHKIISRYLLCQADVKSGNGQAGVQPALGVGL

[9] = target: T3, human A3 adenosine receptor; experiment: Radioligand binding assay, A3 receptor; settings: [3H]-NECA or [125I]-ABA; membranes of transfected COS7 cells; read-out: IC50, inhibition of specific radioligand binding to A3 receptor
Procedure: Membranes prepared from transfected COS7 cells were utilized in a binding assay to measure the affinity of agonists and antagonists on the human adenosine receptors. […] Bound radioactivity was measured by scintillation counting. Binding data were analyzed by the use on nonlinear regression curve fitting program Graph Pad InPlot, Version 3.0 (Graph Pad Software, San Diego). […] The affinities of agonists and antagonists on human adenosine receptor subtypes were measured in competition binding assays using the radiolabeled adenosine agonists, [^3 H]-cyclo-hexyladenosine (CHA) for A1 receptors, [^3 H]-CGS21680 (2-(p-(2-carboxyethyl)-phenylamino)-5'-N-ethyl-carboxamidoadenosine) for A2a receptors and, [^3 H]-5'-N-ethylcarboxamido adenosine ([^3 H]-NECA), or [^125 I]-N^6 -aminobenzyl adenosine (^125 I-ABA) for A3 receptors. Nonselective binding was determined with 1 μM I-ABA for A1 and A3 receptors and 10 μM NECA for A2a receptors. […]

T1 sequence (P29274 whole entry): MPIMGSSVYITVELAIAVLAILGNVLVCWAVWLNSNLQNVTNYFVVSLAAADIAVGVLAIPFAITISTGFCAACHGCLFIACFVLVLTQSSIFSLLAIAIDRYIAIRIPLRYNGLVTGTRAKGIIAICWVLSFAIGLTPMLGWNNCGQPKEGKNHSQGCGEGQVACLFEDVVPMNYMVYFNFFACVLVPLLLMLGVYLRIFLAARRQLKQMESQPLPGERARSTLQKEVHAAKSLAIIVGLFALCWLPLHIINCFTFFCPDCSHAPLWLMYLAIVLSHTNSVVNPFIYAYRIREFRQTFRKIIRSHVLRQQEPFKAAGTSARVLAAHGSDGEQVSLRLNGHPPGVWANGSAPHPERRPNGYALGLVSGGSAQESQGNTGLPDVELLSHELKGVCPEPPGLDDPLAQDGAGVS

SMILES: Cn1c(=O)c2[nH]c(-c3ccc(S(=O)(=O)O)cc3)nc2n(C)c1=O [8(p-sulfophenyl) theophylline]
- effect on adenosine-induced constriction ([1]; pretreatment 100 μM): did not alter the constriction
- effect on adenosine-induced dilator responses ([1]; pretreatment 100 μM): inhibited the dilator responses

SMILES: N#Cc1cc(NC(=O)C(=O)O)c(Cl)c(NC(=O)C(=O)O)c1 [lodoxamide]
- myocardial ischemic injury [2]: reduces myocardial ischemic injury

SMILES: Nc1ncnc2c1ncn2[C@@H]1O[C@H](CO)[C@@H](O)[C@H]1O [adenosine]
- bronchoconstriction (asthmatics): produce bronchoconstriction in asthmatics but not in nonasthmatics
- constrictor response of arterioles ([1]; 10^-6 M adenosine, abluminal): elicited an intense, transient constriction
- dilator response of arterioles ([1]; concentrations higher than 10^-6 M adenosine): induced dilator responses
- mast cell degranulation on abluminal vessel surface ([1]; following exposure to adenosine, methylene blue staining): mast cells are found to be degranulated
- release of granule contents from mast cells [3]: potentiates the release of granule contents

- IC50 [4]: 27.5 µM
- IC50 [5]: 5.3 µM
- effect on basal cAMP levels ([6]; basal): no effect
- effect on levels of cAMP accumulated with forskolin alone ([6]; forskolin alone): no effect
- affinity for canine A3 adenosine receptors [7]: high affinity
- IC50, cAMP accumulation via A2b receptors [8]: inactive
- IC50 [9]: 0.013 µM
SMILES: COC(=O)C1=C2C=CN(C)C=C2c2nc(-c3ccccc3)nn2C1 [Compound IV]
- myocardial infarct size (myocardial infarct; 90 min LAD occlusion, 3 h reperfusion, intracoronary infusion, vs vehicle): effectively reduces myocardial infarct size
- hemodynamics and regional myocardial blood flow in non-ischemic left circumflex coronary artery region (myocardial infarct; at baseline or during occlusion, between groups): not different between groups
- myeloperoxidase activity (myocardial infarct; between the two groups, end of experiment): not different between the two groups
- arrhythmias (myocardial infarct; during occlusion and reperfusion, all animals): arrhythmias are encountered
- coronary sinus LDH activity (myocardial infarct; during reperfusion): reduced
- coronary sinus histamine concentrations (myocardial infarct; during reperfusion): reduced
- dP/dt (myocardial infarct; during reperfusion): significantly improved
- left anterior descending coronary artery blood flow (myocardial infarct; during reperfusion): significantly decreased
- myeloperoxidase activity in infarcted tissue (myocardial infarct; infarcted tissue, end of experiment): tendency for reduced activity
- collateral blood flow (myocardial infarct; ischemic-reperfused region, during occlusion, particularly subepicardial): slightly greater
- ventricular fibrillation requiring cardioversion (myocardial infarct; some dogs from each group): some dogs from each group progress to ventricular fibrillation requiring cardioversion
- effect on inhibition of cAMP accumulation resulting from adenosine activation of A3 receptors ([6]; 10 μM compound IV, forskolin induced cAMP): prevents the inhibition of cAMP accumulation
